Test results published in PMC10892984, “Novel Antineoplastic Inducers of Mitochondrial Apoptosis in Human Cancer Cells” (Molecules, 2024).

Experiments:
[1] = tested on: 60 human cancer cell lines
Text: The defined tumor inhibition criterion (GI50, TGI, or LC50) is recalculated in log10 expression, and the colored bars, which indicate then the sensitivity of the individual tumor cell line to the agent, are given in log10 units. […] The most important feature is at the bottom of the page: the MID (Mean of Inhibition Data) indicates the mean concentration for all tested cell lines required for the drug to reach the defined tumor inhibition criterion (GI50, TGI, or LC50). It is given in Log10GI50, Log10TGI, and Log10LC50. From those values, the corresponding MID is calculated. […] The MID can be transformed from logarithmic into linear concentrations by the formula: c = 10^MID.
The human tumor cell lines of the cancer screening panel are grown in RPMI-1640 medium containing 5% fetal bovine serum (FBS) and 2 mM L-glutamine. For a typical screening experiment, cells are inoculated into 96-well microtiter plates in 100 μL at plating densities ranging from 5000 to 40,000 cells/well, depending on the doubling time of individual cell lines. After cell inoculation, the microtiter plates are incubated at 37 °C, 5% CO2, 95% air, and 100% relative humidity for 24 h prior to the addition of experimental drugs. After 24 h, two plates of each cell line are fixed in situ with trichloroacetic acid (TCA) to represent a measurement of the cell population for each cell line at the time of drug addition (Tz). Experimental drugs are solubilized in dimethyl sulfoxide (DMSO) at 400-fold the desired final maximum test concentration and stored frozen prior to use. At the time of drug addition, an aliquot of frozen concentrate is thawed and diluted to twice the desired final maximum test concentration with a complete medium containing 50 μg/mL gentamicin. Additional four, 10-fold or ½ log serial dilutions are made to provide a total of five drug concentrations plus control. Aliquots of 100 μL of these different drug dilutions are added to the appropriate microtiter wells already containing 100 μL of the medium, resulting in the required final drug concentrations.
Following drug addition, the plates are incubated for an additional 48 h at 37 °C, 5% CO2, 95% air, and 100% relative humidity. For adherent cells, the assay is terminated by the addition of cold TCA. Cells are fixed in situ by the gentle addition of 50 μL of cold 50% (m/v) TCA (final concentration, 10% TCA) and incubated for 60 min at 4 °C. The supernatant is discarded, and the plates are washed five times with tap water and air dried. Sulforhodamine B (SRB) solution [100 μL at 0.4% (m/v) in 1% acetic acid] is added to each well, and plates are incubated for 10 min at room temperature. After staining, unbound dye is removed by washing five times with 1% acetic acid, and the plates are air dried. Bound stain is subsequently solubilized with 10 mM trizma® base [2-amino-2-(hydroxymethyl)-1,3-propandiol, tris base, trometamol], and the absorbance is read on an automated plate reader at a wavelength of λ = 515 nm. For suspension cells, the methodology is the same, except that the assay is terminated by fixing settled cells at the bottom of the wells by gently adding 50 μL of 80% TCA (final concentration, 16% TCA). Using the seven absorbance measurements [time zero, (Tz), control growth, (C), and test growth in the presence of the drug at the five concentration levels (Ti)], the percentage growth is calculated at each of the drug concentration levels. Percentage growth inhibition is calculated as:[(Ti − Tz)/(C − Tz)] × 100 for concentrations for which Ti ≥ Tz [(Ti − Tz)/Tz] × 100 for concentrations for which Ti < Tz
Three dose-response parameters are calculated for each experimental agent.

MALME-3M = details: 48 h
PC-3 cells = experiment: Cytochrome c assay (mitochondrial and cytosolic), ELISA; assay type: cell-based, human; details: 25 µM
Method: (§1) Cell numbers of 2 × 10^6 PC-3 and DU-145 cells were seeded into a […]. […] The protein content for each fraction was calculated to determine the mass content of cytochrome c in each fraction (pg cytochrome c/mg total protein). The mass content of cytochrome c (pg cytochrome c/mg total protein) was normalized towards the corresponding blank DMSO control and is given in percent (%) of blank DMSO control.

DU-145 cells = experiment: as above; assay type: cell-based, human
Method: as §1

c1cc(CNC23CC4CC(CC(C4)C2)C3)cc(C[N+](Cc2cccc(CNC34CC5CC(CC(C5)C3)C4)c2)(Cc2cccc(CNC34CC5CC(CC(C5)C3)C4)c2)Cc2cccc(CNC34CC5CC(CC(C5)C3)C4)c2)c1 (stereo not drawn) [Compound 1, tetrakis{3-[(tricyclo[3.3.1.1^3,7]decan-1-ammonio)methyl]benzyl}ammonium pentachloride]
TGI (HCC-2998; HCC-2998, colon cancer, mutant p53, 48 h): 5.31 µM | GI50 (HCC-2998; Homo sapiens, HCC 2998, 48 h): 1.22 µM | CC50 (HCC-2998; Homo sapiens, HCC 2998, 48 h, read-out: LC50): 22.6 µM | TGI (HCT-15; HCT-15, colon cancer, mutant p53, 48 h): 3.91 µM | GI50 (HCT-15; Homo sapiens, HCT-15, 48 h): 1.1 µM | CC50 (HCT-15; Homo sapiens, HCT-15, 48 h, read-out: LC50): 18.4 µM | GI50 (UO-31; Homo sapiens, UO-31, 48 h): 0.817 µM | CC50 (UO-31; Homo sapiens, UO-31, 48 h, read-out: LC50): 4.73 µM | TGI (UO-31; UO-31, renal cancer, wild-type p53, 48 h): 1.96 µM | TGI (DU-145; DU-145, prostate cancer, mutant p53, 48 h): 4.61 µM | GI50 (DU-145; Homo sapiens, DU-145, 48 h): 1.47 µM | CC50 (DU-145; Homo sapiens, DU-145, 48 h, read-out: LC50): 15.2 µM | GI50 (SNB-75; Homo sapiens, SNB-75, 48 h): 2.34 µM | CC50 (SNB-75; Homo sapiens, SNB-75, 48 h, read-out: LC50): 27.9 µM | TGI (SNB-75; SNB-75, CNS cancer (brain tumor), mutant p53, 48 h): 9.73 µM | GI50 (KM-12; Homo sapiens, KM12, 48 h): 1.65 µM | CC50 (KM-12; Homo sapiens, KM12, 48 h, read-out: LC50): 20.6 µM | TGI (KM-12; KM-12, colon cancer, mutant p53, 48 h): 6.75 µM | GI50 ([1]; Homo sapiens, read-out: Mean of Inhibition Data (MID) GI50, 10^MID): 1.29 µM | CC50 ([1]; Homo sapiens, read-out: Mean of Inhibition Data (MID) LC50, 10^MID): 16.6 µM | induction of cancer cell death (classification) ([1]; NCI 60 panel overall): tumoricidal | Mean of Inhibition Data (MID) TGI, 10^MID ([1]; mean over all tested cell lines of the NCI 60 panel): 4.677 µM | GI50 (RPMI-8226; Homo sapiens, RPMI-8226, 48 h): 1.32 µM | CC50 (RPMI-8226; Homo sapiens, RPMI-8226, 48 h, read-out: LC50): > 50 µM | TGI (RPMI-8226; RPMI-8226, leukemia, mutant p53, 48 h): 3.99 µM | GI50 (NCI-H226; Homo sapiens, NCI-H226, 48 h): 2.76 µM | CC50 (NCI-H226; Homo sapiens, NCI-H226, 48 h, read-out: LC50): 31.2 µM | TGI (NCI-H226; NCI-H226, non-small-cell lung cancer, p53 Lit. inconclusive, 48 h): 10.8 µM | GI50 (SK-MEL-5; Homo sapiens, SK-MEL-5, 48 h): 1.52 µM | CC50 (SK-MEL-5; Homo sapiens, SK-MEL-5, 48 h, read-out: LC50): 18.6 µM | TGI (SK-MEL-5; SK-MEL-5, melanoma, wild-type p53, 48 h): 6.28 µM | GI50 (UACC-62; Homo sapiens, UACC-62, 48 h): 1.16 µM | CC50 (UACC-62; Homo sapiens, UACC-62, 48 h, read-out: LC50): 14.2 µM | TGI (UACC-62; UACC-62, melanoma, wild-type p53, 48 h): 3.68 µM | GI50 (NCI/ADR-RES; Homo sapiens, 48 h): 1.44 µM | CC50 (NCI/ADR-RES; Homo sapiens, 48 h, read-out: LC50): > 50 µM | TGI (NCI/ADR-RES; ovarian cancer, mutant p53, 48 h): 4.55 µM | GI50 (SW-620; Homo sapiens, SW-620, 48 h): 1.25 µM | CC50 (SW-620; Homo sapiens, SW-620, 48 h, read-out: LC50): 17.2 µM | TGI (SW-620; SW-620, colon cancer, mutant p53, 48 h): 3.95 µM | GI50 (OVCAR-5; Homo sapiens, OVCAR-5, 48 h): 0.977 µM | CC50 (OVCAR-5; Homo sapiens, OVCAR-5, 48 h, read-out: LC50): 10.8 µM | TGI (OVCAR-5; OVCAR-5, ovarian cancer, p53 Lit. inconclusive, 48 h): 2.76 µM | GI50 (MDA-MB-231; Homo sapiens, MDA-MB-231, 48 h): 2.09 µM | CC50 (MDA-MB-231; Homo sapiens, MDA-MB-231, 48 h, read-out: LC50): 22.7 µM | TGI (MDA-MB-231; MDA-MB-231, breast cancer, mutant p53, 48 h): 7.41 µM | TGI (786-0; 786-0, renal cancer, mutant p53, 48 h): 1.85 µM | GI50 (786-0; Homo sapiens, 786-0, 48 h): 0.848 µM | CC50 (786-0; Homo sapiens, 786-0, 48 h, read-out: LC50): 4.05 µM | GI50 (SF-539; Homo sapiens, SF-539, 48 h): 1.01 µM | CC50 (SF-539; Homo sapiens, SF-539, 48 h, read-out: LC50): 7.59 µM | TGI (SF-539; SF-539, CNS cancer (brain tumor), mutant p53, 48 h): 2.48 µM | TGI (HT29; HT29, colon cancer, mutant p53, 48 h): 2.82 µM | GI50 (HT29; Homo sapiens, HT-29, 48 h): 0.857 µM | CC50 (HT29; Homo sapiens, HT-29, 48 h, read-out: LC50): 14.6 µM | GI50 (SK-MEL-2; Homo sapiens, SK-MEL-2, 48 h): 1.06 µM | CC50 (SK-MEL-2; Homo sapiens, SK-MEL-2, 48 h, read-out: LC50): 15.6 µM | TGI (SK-MEL-2; SK-MEL-2, melanoma, mutant p53, 48 h): 3.20 µM | TGI (HOP-62; HOP-62, non-small-cell lung cancer, mutant p53, 48 h): 10.1 µM | GI50 (HOP-62; Homo sapiens, HOP-62, 48 h): 2.66 µM | CC50 (HOP-62; Homo sapiens, HOP-62, 48 h, read-out: LC50): 29.7 µM | GI50 (MALME-3M; Homo sapiens, Malme-3M): 0.839 µM | CC50 (MALME-3M; Homo sapiens, Malme-3M, read-out: LC50): 4.12 µM | TGI (MALME-3M; MALME-3M, melanoma, wild-type p53): 1.86 µM | GI50 (RXF 393; Homo sapiens, RXF 393, 48 h): 0.811 µM | CC50 (RXF 393; Homo sapiens, RXF 393, 48 h, read-out: LC50): 3.02 µM | TGI (RXF 393; RXF 393, renal cancer, mutant p53, 48 h): 1.56 µM | GI50 (OVCAR-8; Homo sapiens, OVCAR-8, 48 h): 2.07 µM | CC50 (OVCAR-8; Homo sapiens, OVCAR-8, 48 h, read-out: LC50): 35.3 µM | TGI (OVCAR-8; OVCAR-8, ovarian cancer, mutant p53, 48 h): 8.48 µM | toxicity for the cell line (PC-3 cells; 50 µM and 75 µM, 48 h post-treatment): highly toxic | concentration at which cytochrome c translocation from mitochondria into the cytosol was readily induced (PC-3 cells; 48 h, tested 500 nM, 1 µM, 5 µM): 25.0 µM | toxicity for the cell line (DU-145 cells; 25 µM, 50 µM and 75 µM, 48 h post-treatment): highly toxic | cell death with depletion of cytosolic cytochrome c (DU-145 cells; 25.0 µM, 48 h): induced complete cell death | concentration at which cytochrome c translocation from mitochondria into the cytosol was readily induced (DU-145 cells; 48 h, tested 500 nM, 1 µM, 5 µM, 25 µM): 5.0 µM | GI50 (TK-10; Homo sapiens, TK-10, 48 h): 1.85 µM | CC50 (TK-10; Homo sapiens, TK-10, 48 h, read-out: LC50): 21.5 µM | TGI (TK-10; TK-10, renal cancer, mutant p53, 48 h): 7.17 µM
